Measured values reported in patent US5204336A, “Naphthyl-,tetrahydronaphthyl-, and indanyl-substituted G-em-diphosphonates and process of use to treat hyperlipidemia” (Symphar S.A., priority 1992, dated 1993).

The compounds below were run on peroxide produced in rat liver homogenates (assay: Antioxidant activity: FeSO4-generated peroxides in rat liver homogenate, thiobarbituric acid reaction). Conditions: rat liver homogenate incubated with FeSO4, thiobarbituric acid reaction; read-out: IC50, antioxidant activity (peroxide production).
Format: biochemical
Procedure: Rat liver homogenates were prepared according to Fraga, C. G. et al. Free Radicals Biol. Med., 4, 155, 1988 and Kornburst D. J. et al. Lipids 15, 315, 1980.
Peroxides were generated by incubation of the homogenate with the FeSO4 as described by Quitanilha A. T. et al. Ann. N.Y., Acad. Sci. 393, 32, 1982.
Compounds to be tested for their antioxidant activity were dissolved in DMSO and added to the incubation mixture. The amount of peroxide produced was determined by the thiobarbituric acid reaction using malonaldehyde as standard.

`CCOP(=O)(OCC)C(=Cc1cc(C(C)(C)C)c(O)c2ccccc12)P(=O)(OCC)OCC` [Example 1] was tested. Which IC50 did it give?
The IC50 was 1.5 µM.

Which IC50 does the source give for `CC(C)OP(=O)(OC(C)C)C(=Cc1cc(C(C)(C)C)c(O)c2ccccc12)P(=O)(OC(C)C)OC(C)C` [Example 2] here?
Its IC50 is 0.7 µM.

Which IC50 does the source give for `CCOP(=O)(OCC)C(=Cc1cc(C(C)(C)C)c(O)c2c1CCCC2)P(=O)(OCC)OCC` [Example 6, Tetraethyl 2-(3-tert-butyl-4-hydroxy-5,6,7,8-tetrahydronaphthyl)-ethenylidene-1,1-diphosphonate] here?
Its IC50 is 7 µM.

How did the IC50 turn out when `CC(C)OP(=O)(OC(C)C)C(=Cc1cc(C(C)(C)C)c(O)c2c1CCCC2)P(=O)(OC(C)C)OC(C)C` [Example 8, Tetraispropyl 2-[3-tert-butyl-4-hydroxy-5,6,7,8-tetrahydronaphthyl]-ethenylidene-1,1-diphosphonate] was run?
Its IC50 is 2.5 µM.
